Measurements reported in ChEMBL document CHEMBL1212740, “Long-lasting enfuvirtide carrier pentasaccharide conjugates with potent anti-human immunodeficiency virus type 1 activity” (Antimicrob Agents Chemother, 2010).

Columns and labels:
[1] = test system: Human immunodeficiency virus 1; test: Antiviral activity against HIV1 DJ259 in human PBMC assessed as p24 antigen level by ELISA; type: functional, organism-based; settings: Human immunodeficiency virus 1, DJ259
[2] = test system: Human immunodeficiency virus 1; test: Antiviral activity against HIV1 US2 clade B, R5 in human PBMC assessed as p24 antigen level by ELISA; type: functional, organism-based; settings: Human immunodeficiency virus 1, US2
[3] = test system: Human immunodeficiency virus 1; test: Antiviral activity against HIV1 ETH2220 in human PBMC assessed as p24 antigen level by ELISA; type: functional, organism-based; settings: Human immunodeficiency virus 1, ETH2220
[4] = test system: Human immunodeficiency virus 1; test: Antiviral activity against HIV1 BZ167 in human PBMC assessed as p24 antigen level by ELISA; type: functional, organism-based; settings: Human immunodeficiency virus 1, BZ167
[5] = test system: Human immunodeficiency virus 1; test: Antiviral activity against HIV1 strain I-2496 in human PBMC assessed as p24 antigen level by ELISA; type: functional, organism-based; settings: Human immunodeficiency virus 1, I-2496
[6] = test system: Human immunodeficiency virus 1; test: Antiviral activity against HIV1 Ba-L in human PBMC assessed as p24 antigen level by ELISA; type: functional, organism-based; settings: Human immunodeficiency virus 1, Ba-L
[7] = test system: Human immunodeficiency virus 1; test: Antiviral activity against HIV1 NL4.3 in human PBMC assessed as p24 antigen level by ELISA; type: functional, organism-based; settings: Human immunodeficiency virus 1, NL4.3
[8] = test system: Human immunodeficiency virus 1; test: Antiviral activity against HIV1 UG273 clade A, R5 in human PBMC assessed as p24 antigen level by ELISA; type: functional, organism-based; settings: Human immunodeficiency virus 1, UG273
[9] = test system: Human immunodeficiency virus 1; test: Antiviral activity against HIV1 3B/LA1 infected in HUT-78 cells co-cultured with uninfected human SupT1 CD4+ T-cell assessed as inhibition of envelope mediated cell-cell fusion after 16-20 hrs by cell-cell fusion assay; type: functional, organism-based; settings: Human immunodeficiency virus 1, 3B/LA1, HuT78
[10] = Elimination half life in Wister rat at 4 mg/ kg, iv; type: ADME, organism-based; parameters: dose 4 mg/ kg, route intravenous; settings: Wistar, in vivo
[11] = test system: CCRF-CEM; test: Cytotoxicity against human CEM cells up to 100 uM by MTS assay; type: cell-based
[12] = test system: PBMC; test: Cytotoxicity against human PBMC up to 100 uM by MTS assay; type: cell-based
[13] = test system: Human immunodeficiency virus 1; test: Antiviral activity against HIV1 3B/LA1 infected in human CD4+ T-cell assessed as inhibition of giant cell formation; type: functional, organism-based; settings: Human immunodeficiency virus 1, 3B/LA1, CD4+ T cell
[14] = test system: Human immunodeficiency virus 2; test: Antiviral activity against Human immunodeficiency virus 2 ROD infected in human CD4+ T-cell assessed as inhibition of giant cell formation; type: functional, organism-based; settings: Human immunodeficiency virus 2, ISOLATE ROD

Molecule | EC50 [1] [µM] | EC50 [2] [µM] | EC50 [3] [µM] | EC50 [4] [µM] | EC50 [5] [µM] | EC50 [6] [µM] | EC50 [7] [µM] | EC50 [8] [µM] | EC50 [9] [µM] | half-life [10] [h] | Activity [11] | Activity [12] | EC50 [13] [µM] | EC50 [14] [µM]
Cc1nnc(C(C)C)n1[C@H]1C[C@H]2CC[C@@H](C1)N2CC[C@H](NC(=O)C1CCC(F)(F)CC1)c1ccccc1 [MARAVIROC] | 0.0037 | 0.0003 | 0.0036 | > 1 | 0.0004 | 0.0038 | > 1 | 0.0026 |  |  |  |  |  | 
c1cc(CN2CCCNCCNCCCNCC2)ccc1CN1CCCNCCNCCCNCC1 [PLERIXAFOR] | > 1 | > 1 | > 1 | 0.0185 | > 1 | > 1 | 0.0036 | > 1 |  |  |  |  |  | 
enfuvirtide | 0.0179 | 0.0063 | 0.0177 | 0.0179 | 0.0124 | 0.0179 | 0.0036 | 0.0559 | 0.275 | 2.8 | Toxic | Toxic | 0.003 | 0.36
